The NIST ThermoML archive (doi:10.1021/je700261b)

Assay: xn = mol fraction of the nth substance listed
Conditions: Liquid

CCCCO [butan-1-ol] + O=C=O
Conditions	mass density [kg/m3]
323.07 K, 16977 kPa, x2 = 0.0857	807.17
323.07 K, 18030 kPa, x2 = 0.0857	808.01
323.07 K, 18995 kPa, x2 = 0.0857	808.74
323.07 K, 19987 kPa, x2 = 0.0857	809.54
323.07 K, 21040 kPa, x2 = 0.0857	810.38
323.07 K, 21992 kPa, x2 = 0.0857	811.09
323.07 K, 23011 kPa, x2 = 0.0857	811.87
323.07 K, 24000 kPa, x2 = 0.0857	812.6
323.07 K, 25007 kPa, x2 = 0.0857	813.42
323.1 K, 10109 kPa, x2 = 0.4972	818.96
323.1 K, 11078 kPa, x2 = 0.4972	820.55
323.1 K, 11078 kPa, x2 = 0.5965	822.9
323.1 K, 12051 kPa, x2 = 0.4972	822.08
323.1 K, 12072 kPa, x2 = 0.5965	825.03
323.1 K, 12077 kPa, x2 = 0.8663	777.48
323.1 K, 13046 kPa, x2 = 0.8663	787.33
323.1 K, 13049 kPa, x2 = 0.4972	823.64
323.1 K, 13059 kPa, x2 = 0.5965	827.1
323.1 K, 14029 kPa, x2 = 0.8663	796.15
323.1 K, 14053 kPa, x2 = 0.4972	825.18
323.1 K, 14067 kPa, x2 = 0.5965	829.16
323.1 K, 15041 kPa, x2 = 0.4972	826.62
323.1 K, 15050 kPa, x2 = 0.8663	804.37
323.1 K, 15063 kPa, x2 = 0.5965	831.15
323.1 K, 16046 kPa, x2 = 0.5965	833.04
323.1 K, 16058 kPa, x2 = 0.4972	828.14
323.1 K, 16077 kPa, x2 = 0.8663	811.86
323.1 K, 17030 kPa, x2 = 0.5965	834.9
323.1 K, 17044 kPa, x2 = 0.8663	818.37
323.1 K, 17051 kPa, x2 = 0.4972	829.54
323.1 K, 18024 kPa, x2 = 0.8663	824.54
323.1 K, 18049 kPa, x2 = 0.5965	836.78
323.1 K, 18061 kPa, x2 = 0.4972	830.96
323.1 K, 19022 kPa, x2 = 0.4972	832.33
323.1 K, 19033 kPa, x2 = 0.8663	830.52
323.1 K, 19044 kPa, x2 = 0.5965	838.57
323.1 K, 20021 kPa, x2 = 0.4972	833.69
323.1 K, 20028 kPa, x2 = 0.8663	835.95
323.1 K, 20039 kPa, x2 = 0.5965	840.32
323.1 K, 21026 kPa, x2 = 0.8663	841.13
323.1 K, 21047 kPa, x2 = 0.4972	835.06
323.1 K, 21064 kPa, x2 = 0.5965	842.09
323.1 K, 22036 kPa, x2 = 0.4972	836.36
323.1 K, 22041 kPa, x2 = 0.5965	843.75
323.1 K, 22054 kPa, x2 = 0.8663	846.3
323.1 K, 23023 kPa, x2 = 0.5965	845.38
323.1 K, 23023 kPa, x2 = 0.8663	850.85
323.1 K, 23045 kPa, x2 = 0.4972	837.69
323.1 K, 23996 kPa, x2 = 0.4972	838.91
323.1 K, 24006 kPa, x2 = 0.8663	855.33
323.1 K, 24008 kPa, x2 = 0.5965	847
323.1 K, 25012 kPa, x2 = 0.4972	840.21
323.1 K, 25040 kPa, x2 = 0.5965	848.65
323.1 K, 25041 kPa, x2 = 0.8663	859.75
332.94 K, 1010 kPa, x2 = 0.0251	781.57
332.94 K, 2077 kPa, x2 = 0.0251	782.55
332.94 K, 3046 kPa, x2 = 0.0251	783.47
332.94 K, 3990 kPa, x2 = 0.0251	784.3
332.94 K, 5002 kPa, x2 = 0.0251	785.22
332.94 K, 6026 kPa, x2 = 0.0251	786.15
332.94 K, 6975 kPa, x2 = 0.0251	786.98
332.94 K, 8009 kPa, x2 = 0.0251	787.91
332.94 K, 9084 kPa, x2 = 0.0251	788.83
332.94 K, 9985 kPa, x2 = 0.0251	789.62
332.94 K, 11024 kPa, x2 = 0.0251	790.52
332.94 K, 12040 kPa, x2 = 0.0251	791.34
332.94 K, 12968 kPa, x2 = 0.0251	792.12
332.94 K, 12999 kPa, x2 = 0.9698	600.03
332.94 K, 13994 kPa, x2 = 0.0251	792.95
332.94 K, 14036 kPa, x2 = 0.9698	638.84
332.94 K, 15021 kPa, x2 = 0.9698	667.05
332.94 K, 15041 kPa, x2 = 0.0251	793.85
332.94 K, 16014 kPa, x2 = 0.9698	689.92
332.94 K, 16061 kPa, x2 = 0.0251	794.54
332.94 K, 17001 kPa, x2 = 0.0251	795.37
332.94 K, 17022 kPa, x2 = 0.9698	709.37
332.94 K, 18009 kPa, x2 = 0.9698	725.81
332.94 K, 18031 kPa, x2 = 0.0251	796.18
332.94 K, 19010 kPa, x2 = 0.9698	740.47
332.94 K, 19042 kPa, x2 = 0.0251	796.95
332.94 K, 20027 kPa, x2 = 0.0251	797.73
332.94 K, 20028 kPa, x2 = 0.9698	753.7
332.94 K, 20987 kPa, x2 = 0.0251	798.46
